For five compounds, inhibition results are on record in paper PMC5540273, “Progress towards a public chemogenomic set for protein kinases and a call for contributions” (PLoS ONE, 2017).

Holding throughout (assay): KINOMEscan competition binding
One test addresses LOK (Homo sapiens, UniProt O94804). The settings on record: read-out: %Inh LOK.
Another test has as its target CIT (Homo sapiens, UniProt O14578). The settings on record: read-out: %Inh CIT.
The next test deals with CAMK1 (Homo sapiens, UniProt Q14012). The settings on record: read-out: %Inh CAMK1.
The target of the next test is T1, AURKA (Homo sapiens, UniProt O14965).
T1 sequence (O14965 1-403): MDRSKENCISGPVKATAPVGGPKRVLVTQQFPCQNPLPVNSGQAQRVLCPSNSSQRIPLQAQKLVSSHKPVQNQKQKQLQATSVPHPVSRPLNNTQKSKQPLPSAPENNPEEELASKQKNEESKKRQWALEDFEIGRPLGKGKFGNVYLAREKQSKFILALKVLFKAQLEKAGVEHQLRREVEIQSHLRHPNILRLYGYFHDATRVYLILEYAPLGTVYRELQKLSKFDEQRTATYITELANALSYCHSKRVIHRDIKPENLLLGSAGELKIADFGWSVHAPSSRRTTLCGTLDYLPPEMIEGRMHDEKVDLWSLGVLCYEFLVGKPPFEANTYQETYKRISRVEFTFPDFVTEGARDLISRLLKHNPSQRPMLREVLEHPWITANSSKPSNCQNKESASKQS
The note with it: read-out: %Inh AURKA.

For the next test, the target named is EPHA4 (Homo sapiens, UniProt P54764). The settings on record: read-out: %Inh EPHA4.
For the next test, the target named is T2, ASK2 (Homo sapiens, UniProt O95382).
T2 sequence (O95382 1-1288): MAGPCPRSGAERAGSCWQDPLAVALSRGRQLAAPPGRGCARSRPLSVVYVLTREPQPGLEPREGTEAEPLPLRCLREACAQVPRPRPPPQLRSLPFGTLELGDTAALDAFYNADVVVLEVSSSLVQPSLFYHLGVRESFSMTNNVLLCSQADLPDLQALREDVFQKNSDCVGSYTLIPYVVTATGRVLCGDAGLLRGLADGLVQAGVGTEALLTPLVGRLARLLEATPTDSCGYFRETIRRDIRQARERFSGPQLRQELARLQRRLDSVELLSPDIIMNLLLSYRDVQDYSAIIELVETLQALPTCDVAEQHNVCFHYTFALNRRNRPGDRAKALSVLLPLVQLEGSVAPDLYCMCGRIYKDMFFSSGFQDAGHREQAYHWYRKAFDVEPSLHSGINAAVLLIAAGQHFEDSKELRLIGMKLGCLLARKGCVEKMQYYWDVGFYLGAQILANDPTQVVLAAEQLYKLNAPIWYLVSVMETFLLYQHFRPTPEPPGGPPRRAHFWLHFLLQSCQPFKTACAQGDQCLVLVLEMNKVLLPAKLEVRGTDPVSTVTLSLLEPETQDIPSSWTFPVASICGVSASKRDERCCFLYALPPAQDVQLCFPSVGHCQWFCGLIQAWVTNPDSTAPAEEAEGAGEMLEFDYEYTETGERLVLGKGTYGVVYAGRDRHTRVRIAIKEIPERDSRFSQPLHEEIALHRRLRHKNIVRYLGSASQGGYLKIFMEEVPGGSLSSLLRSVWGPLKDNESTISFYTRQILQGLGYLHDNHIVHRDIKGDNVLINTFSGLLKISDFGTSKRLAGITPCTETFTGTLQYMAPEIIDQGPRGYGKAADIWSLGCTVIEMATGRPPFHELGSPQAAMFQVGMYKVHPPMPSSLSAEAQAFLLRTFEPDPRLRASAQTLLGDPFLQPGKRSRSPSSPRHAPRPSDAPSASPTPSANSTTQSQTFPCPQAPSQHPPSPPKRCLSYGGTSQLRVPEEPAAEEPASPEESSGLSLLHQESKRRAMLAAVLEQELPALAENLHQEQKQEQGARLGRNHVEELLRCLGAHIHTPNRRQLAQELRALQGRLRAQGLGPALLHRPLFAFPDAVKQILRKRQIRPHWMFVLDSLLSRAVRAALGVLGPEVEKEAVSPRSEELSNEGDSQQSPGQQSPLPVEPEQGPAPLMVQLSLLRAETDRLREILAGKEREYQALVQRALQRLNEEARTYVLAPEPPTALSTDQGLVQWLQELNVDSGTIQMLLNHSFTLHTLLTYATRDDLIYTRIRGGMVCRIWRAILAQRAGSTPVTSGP
The settings on record: read-out: %Inh ASK2.

The next test deals with FLT1 (Homo sapiens, UniProt P17948). The settings on record: read-out: %Inh FLT1.
For the next test, the target named is CSNK2A2 (Homo sapiens, UniProt P19784). The settings on record: read-out: %Inh CSNK2A2.
Another test deals with T3, DMPK (Homo sapiens, UniProt Q09013).
T3 sequence (Q09013 1-629): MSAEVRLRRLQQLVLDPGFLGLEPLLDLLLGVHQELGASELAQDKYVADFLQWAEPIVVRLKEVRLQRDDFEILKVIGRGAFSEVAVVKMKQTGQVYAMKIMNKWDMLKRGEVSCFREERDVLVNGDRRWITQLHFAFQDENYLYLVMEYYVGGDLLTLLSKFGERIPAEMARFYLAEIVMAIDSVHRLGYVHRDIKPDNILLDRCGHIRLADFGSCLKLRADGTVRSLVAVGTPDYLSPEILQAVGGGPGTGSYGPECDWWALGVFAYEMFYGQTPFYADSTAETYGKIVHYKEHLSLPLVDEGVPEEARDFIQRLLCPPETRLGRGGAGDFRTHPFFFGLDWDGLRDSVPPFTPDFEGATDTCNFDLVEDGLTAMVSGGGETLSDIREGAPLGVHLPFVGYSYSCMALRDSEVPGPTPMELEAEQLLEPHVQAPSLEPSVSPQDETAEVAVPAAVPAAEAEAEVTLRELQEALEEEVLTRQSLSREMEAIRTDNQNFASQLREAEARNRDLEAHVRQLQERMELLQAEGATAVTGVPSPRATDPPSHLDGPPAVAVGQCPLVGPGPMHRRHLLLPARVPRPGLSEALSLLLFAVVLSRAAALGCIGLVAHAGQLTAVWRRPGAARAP
The settings on record: read-out: %Inh DMPK.

With `O=c1cc(N2CCOCC2)nc2n(Cc3cccc(Cl)c3Cl)c(C3CC3)nn12` [UNC10225469A], the inhibition at 1 µM was 0% at LOK; 0% at CIT; 0% at CAMK1; 0% at AURKA; 11% at EPHA4; 0% at ASK2. For the same compound, the inhibition at 1 µM at FLT1 is 6%; on CSNK2A2, 0%; at DMPK, 0%.

In the case of `COc1cccc(OC)c1C(=O)Nc1cccc(-c2nn3ccccc3c2-c2ccnc(Nc3cccc(F)c3)n2)c1` [UNC10225310A], the inhibition at 1 µM at LOK was found to be 90%; at CIT, 36%; at CAMK1, 19%; on AURKA, 32%; at EPHA4, 0%; on ASK2, 0%. Besides, the inhibition at 1 µM stood at 32% at FLT1, 23% at CSNK2A2 and 2% at DMPK.

As to `CS(=O)(=O)Cc1ccc(Nc2nccc(-c3c(-c4cccc(NC(=O)C5CCCCC5)c4)nn4ncccc34)n2)cc1` [UNC10225159A], the inhibition at 1 µM is 81% on LOK; 10% at CIT; 0% on CAMK1; 9% at AURKA; 14% on EPHA4; 34% on ASK2. Further, the figures for the inhibition at 1 µM on FLT1, at CSNK2A2 and at DMPK were 63%, 1% and 0%, respectively.

For the compound `Cc1ccc(NC(=O)Nc2cccc(C(F)(F)F)c2)cc1` [UNC10225187A], the inhibition at 1 µM at LOK was found to be 0%; on CIT it was 29%; on CAMK1, 7%; at AURKA it was 0%; at EPHA4 it was 6%; on ASK2, 0%. The inhibition at 1 µM at FLT1 worked out at 23%; on CSNK2A2, 0%; on DMPK it was 0%.

Turning to `Cn1cc(-c2cnc(N)c3c(-c4ccc5c(c4)CCN5C(=O)Cc4ccccc4)csc23)cn1` [UNC10225012A], the inhibition at 1 µM was 98.9% on LOK; 0% on CIT; 0% at CAMK1; 24% on AURKA; 11% at EPHA4; 17% at ASK2. The inhibition at 1 µM came to 79% on FLT1, 1% at CSNK2A2 and 0% at DMPK.
